Assay results: patent US5459256A, “Lipophilic, aminohydrolase-activated prodrugs” (priority 1991, dated 1995)

Target: T1, adenosine deaminase (adenosine aminohydrolase, EC 3.5.4.4) (Bos taurus, UniProt P56658)
T1 sequence (P56658 1-363): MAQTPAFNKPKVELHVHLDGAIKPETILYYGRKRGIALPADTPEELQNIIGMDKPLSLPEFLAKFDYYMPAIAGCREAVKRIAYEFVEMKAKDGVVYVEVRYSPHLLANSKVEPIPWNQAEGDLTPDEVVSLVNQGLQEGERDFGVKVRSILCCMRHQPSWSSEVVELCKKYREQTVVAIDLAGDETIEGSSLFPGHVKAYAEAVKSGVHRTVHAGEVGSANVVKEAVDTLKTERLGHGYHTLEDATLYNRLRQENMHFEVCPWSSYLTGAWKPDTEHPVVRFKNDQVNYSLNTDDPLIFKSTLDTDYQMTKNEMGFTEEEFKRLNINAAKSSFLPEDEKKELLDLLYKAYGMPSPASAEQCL
Assay: Enzymatic deamination by adenosine deaminase (HPLC)
Experimental: FIG. 1. Deamination of dideoxyadenosine analogues by adenosine deaminase. Hydrolysis kinetics and 2'-F-dd-ara-I formation during the incubation of 50 μM N^6 -CH3 -2'-F-dd-ara-A (1f) with 0.7 units/mL of adenosine deaminase at 37° C. A unit of adenosine deaminase is the amount of enzyme which hydrolyzes a standard substrate (e.g., adenosine) at the rate of 1.0 μmole/min at 25° C. and pH 7.5. […] Insert: Adenosine deaminase hydrolysis kinetics for 50 μM ddA and 2'-F-dd-ara-A. The hydrolysis curve for ddA has been extrapolated from kinetics obtained with 0.07 units/mL of adenosine deaminase under identical conditions.
A 50 μl aliquot of a 10 mg/ml suspension of adenosine deaminase (adenosine aminohydrolase, EC 3.5.4.4) from calf intestinal mucosa was centrifuged at 600×g for 3 min. The residue remaining after removal of the (NH4)2 SO4 supernatant was dissolved in 0.5 ml pH 7.4 tris(hydroxymethyl)-aminomethane (Tris) buffer to give an enzyme solution of 1 mg/ml (274 units/ml). […] A pH 7.4 buffer was prepared by adjusting 0.01M Tris to pH 7.4 with 0.5N HCl, The 1.0 HCl , HPLC-grade acetonitrile, monobasic potassium phosphate, sodium hydroxide and ultrapure Tris were all commercially available and were used without further purification.
Enzymatic Deamination of Adenosine Analogues. […] A 50 μL aliquot of substrate solution was diluted with 0.95 ml 0.01M Tris buffer in a 1.5-mL Eppendorf tube and equilibrated at 37° C. in a Dubnoff metabolic shaking incubator. Reaction was initiated by addition of 2.5 μL of adenosine deaminase solution (0.7 unit). At specified time intervals, a 50 μL aliquot of the reaction mixture was withdrawn and quenched by mixing with 0.45 mL cold 2 μM 2'-deoxycoformycin. This diluted sample was ultrafiltered to remove enzyme in a Centrifree Micropartition unit by centrifugation at 600×g at 4° C. in a high speed refrigerated centrifuge. The decrease in substrate concentration was monitored by HPLC analysis of the resultant ultrafiltrate (see below). The ability of 2'-deoxycoformycin to inhibit deamination under the above conditions was evaluated by adding 2 μL of 1.0 mM inhibitor to diluted substrate solutions at the time of equilibration. Reaction, sampling and analysis were carried out as above. […] Initial hydrolysis rates for each substrate concentration were measured through linear least-squares curve fitting of the concentration versus time data for reaction of the first 10% of substrate. KM and vmax values for each substrate were then determined from a graphical lineweaver-Burke plot of these initial rates (FIG. 1).
HPLC Analysis of Dideoxypurine Nucleosides.
Concentrations of dideoxynucleosides were measured by the HPLC analysis of 100 μL aliquots of ultrafiltered samples. A 4.6×250 mm 5-μm Ultrasphere-ODS column, protected by a Waters guard column packed with 37-50 μm Vydac 201SC, was eluted with 10-20% CH3 CN in 0.01M pH 7.0 phosphate buffer at a flow rate of 1.0 mL/min. Dideoxynucleosides and deamination products were detected at the appropriate wavelength of maximum absorption with a Gilson 116 variable wavelength detector. Peak identity was determined from coincidence of retention times with standards and by comparison of on-the-fly UV spectra obtained with a Perkin-Elmer LC-235 diode array detector. Peak areas and peak heights were measured simultaneously on a Spectra-Physics SP4200 computing integrator.

Structure (SMILES): CNc1ncnc2c1ncn2[C@@H]1O[C@H](CO)C[C@@H]1F [Compound 1f, N^6 -Methyl-9-(2'3'-dideoxy-2'-fluoro-β-D-arabinofuranosyl)adenine]
- Measured Relative Rate (50 μM substrate, pH 7.4 and 37° C., ddA = 100): 0.04
- deamination product / product formation (in words) (0.7 U/mL ADA, 37° C.): the corresponding inosine analogue, 1b, was the product formed
- half-life at 50 µM (bovine, adenosine deaminase): 3 h
- vmax (pH 7.4 and 37° C.): 5.5 × 10^-4 μmol/min/U
- hydrolysis rate, times slower than 1a (vs 1a, 0.7 U/mL ADA, 37° C.): 135 times slower
- binding to ADA, times tighter than 1i (vs 1i): about 70 times tighter
- vmax, times slower than 1i (vs 1i): 50 times slower
- hydrolysis by ADA, times slower than ddA (vs ddA, 50 μM substrate): ~2500 times slower
